Data on 7 compounds can be found in patent US6284774A, “4-Benzyl piperidine alkylsulfoxide heterocycles and their use as subtype-selective NMDA receptor antagonists” (priority 2000, dated 2001).

The subject of experiment [1] is d-amphetamine-induced stimulation. To be noted: injected into rat nucleus accumbens vs striatum; cited from earlier work.
For experiment [2] the following is noted: variety of animal models highly predictive of human anxiety; cited from earlier work.
In experiment [3] the test system is smooth muscle of the airway. The conditions noted are these: cited from earlier work.
In a further experiment the target is T1, NRIA /2A (Rattus norvegicus, UniProt P35439+Q00959).
T1 construct: expressed in transfected cells; host or cells: Xenopus laevis oocytes (cRNA micro-injection)
T1 sequence (Q00959 23-1464, other chains not shown): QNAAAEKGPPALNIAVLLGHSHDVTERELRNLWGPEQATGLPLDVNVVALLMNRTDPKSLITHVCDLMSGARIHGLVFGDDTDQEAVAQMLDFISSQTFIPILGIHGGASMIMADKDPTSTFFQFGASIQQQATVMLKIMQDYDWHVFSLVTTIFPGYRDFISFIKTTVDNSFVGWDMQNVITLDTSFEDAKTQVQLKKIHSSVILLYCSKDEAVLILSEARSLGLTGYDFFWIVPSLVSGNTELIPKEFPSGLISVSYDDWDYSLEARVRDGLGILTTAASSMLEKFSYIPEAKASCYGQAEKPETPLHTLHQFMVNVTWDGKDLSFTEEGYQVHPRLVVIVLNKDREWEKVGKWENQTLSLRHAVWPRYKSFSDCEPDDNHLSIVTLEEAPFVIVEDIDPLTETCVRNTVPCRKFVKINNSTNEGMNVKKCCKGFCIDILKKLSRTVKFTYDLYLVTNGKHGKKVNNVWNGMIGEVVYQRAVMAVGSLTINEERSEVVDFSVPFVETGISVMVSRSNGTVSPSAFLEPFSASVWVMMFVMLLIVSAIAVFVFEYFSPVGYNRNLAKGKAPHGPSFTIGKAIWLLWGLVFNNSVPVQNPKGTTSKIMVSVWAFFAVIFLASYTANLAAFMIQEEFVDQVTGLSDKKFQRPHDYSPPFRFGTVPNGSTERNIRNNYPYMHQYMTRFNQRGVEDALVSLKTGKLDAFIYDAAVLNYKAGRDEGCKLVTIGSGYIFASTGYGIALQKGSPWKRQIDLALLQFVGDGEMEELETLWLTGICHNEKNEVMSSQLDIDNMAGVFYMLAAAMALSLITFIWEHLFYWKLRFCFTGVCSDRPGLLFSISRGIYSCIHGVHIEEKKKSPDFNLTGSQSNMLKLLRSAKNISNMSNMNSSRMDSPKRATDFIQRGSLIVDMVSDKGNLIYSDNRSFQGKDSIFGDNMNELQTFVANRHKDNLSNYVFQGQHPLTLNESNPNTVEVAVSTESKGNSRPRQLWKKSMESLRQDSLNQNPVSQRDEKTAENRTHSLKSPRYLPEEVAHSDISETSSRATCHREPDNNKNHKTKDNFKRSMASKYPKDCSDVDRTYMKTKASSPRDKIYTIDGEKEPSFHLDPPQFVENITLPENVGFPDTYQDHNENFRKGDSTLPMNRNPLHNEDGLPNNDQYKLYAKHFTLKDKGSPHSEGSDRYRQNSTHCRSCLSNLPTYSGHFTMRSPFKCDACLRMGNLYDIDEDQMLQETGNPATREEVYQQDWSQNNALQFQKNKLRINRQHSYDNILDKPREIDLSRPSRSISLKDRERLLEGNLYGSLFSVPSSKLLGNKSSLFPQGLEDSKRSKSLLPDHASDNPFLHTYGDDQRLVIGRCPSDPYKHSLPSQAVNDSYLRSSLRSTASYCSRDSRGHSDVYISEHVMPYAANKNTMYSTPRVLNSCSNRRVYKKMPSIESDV
The experiment in a line: Electrophysiological assay at NMDA receptor subunits NR1A/2A expressed in Xenopus oocytes. The format is cell-based. The conditions noted are these: rat clones in Xenopus oocytes, currents activated by glutamate (100 μM) and glycine (1-100 μM). The source says: (§1) Many of the properties of native NMDA receptors are seen in recombinant homomeric NR1 receptors expressed in Xenopus oocytes. These properties are altered by the NR2 subunits. Recombinant NMDA receptors expressed in Xenopus oocytes have been studied by voltage-clamp recording, as has developmental and regional expression of the mRNAs encoding NMDA receptor subunits. Electrophysiological assays were utilized to characterize the actions of compounds at NMDA receptors expressed in Xenopus oocytes.
(§2) Electrophysiological Assays at NMDA receptor subunits.
(§3) cDNA clones encoding the NR1A, NR2A, NR2B, and NR2C rat NMDA receptor subtypes were used. […] The clones were transformed into appropriate host bacteria and plasmid preparations were made with conventional DNA purification techniques. A sample of each clone was linearized by restriction enzyme digestion and cRNA was synthesized with T3 RNA polymerase. The cRNA was diluted to 400 ng/μl and stored in 1 μl aliquots at -80° C. until injection.
(§4) The Xenopus Oocyte Expression System
(§5) Follicle-enclosed oocytes were micro-injected with 1:1 mixtures of NR1A:NR2A, 2B or 2C; infecting 1-10 ng of RNA encoding each receptor subunit. NR1A encoding RNA was injected alone at ~20 ng. Oocytes were stored in Barth's medium containing (in mM):NaCl, 88; KCl, 1; CaCl2, 0.41; Ca(NO3)2, 0.33; MgSo4, 0.82 NaHCO3, 2.4; HEPES 5, pH 7.4, with 0.11 mg/ml gentamicin sulphate. While oocytes were still surrounded by enveloping ovarian tissues the Barth's medium was supplemented with 0.1% bovine serum.
(§6) Electrical recordings were made using a conventional two-electrode voltage clamp (Dagan TEV-200) over periods ranging between 3-21 days following injection. […] Drugs were applied by bath perfusion. Using oocytes expressing different subunit combinations of NMDA receptor, NMDA currents were activated by co-application of glutamate (100 μM) and glycine (1-100 μM). Inhibitory potency of the novel antagonists was assessed on responses elicited by fixed concentrations of glutamate and glycine, by measuring reductions in current induced by progressively increasing concentrations of antagonist. Concentration-inhibition curves were fit with equation 1.
(§7) in which Icontrol is the current evoked by agonists alone, pIC50 =-log IC50, IC50 is the concentration of antagonist that produces half maximal inhibition, and n is the slope factor. […] For incomplete curves analysis by fitting was unreliable and IC50 values were calculated by simple regression over linear portions of the curves (Origin: Microcal Software).

A further experiment addresses T2, NR1A /2B (Rattus norvegicus, UniProt P35439+Q00960).
T2 construct: expressed in transfected cells; host or cells: Xenopus laevis oocytes (cRNA micro-injection)
The experiment in a line: Electrophysiological assay at NMDA receptor subunits NR1A/2B expressed in Xenopus oocytes. The format is cell-based. To be noted: rat clones in Xenopus oocytes, currents activated by glutamate (100 μM) and glycine (1-100 μM).
Description: as §1, §2, §3, §4, §5, §6, §7

For another experiment, the target named is T3, NR1A /2C (Rattus norvegicus, UniProt P35439+Q00961).
T3 construct: expressed in transfected cells; host or cells: Xenopus laevis oocytes (cRNA micro-injection)
T3 sequence (Q00961 20-1237, other chains not shown): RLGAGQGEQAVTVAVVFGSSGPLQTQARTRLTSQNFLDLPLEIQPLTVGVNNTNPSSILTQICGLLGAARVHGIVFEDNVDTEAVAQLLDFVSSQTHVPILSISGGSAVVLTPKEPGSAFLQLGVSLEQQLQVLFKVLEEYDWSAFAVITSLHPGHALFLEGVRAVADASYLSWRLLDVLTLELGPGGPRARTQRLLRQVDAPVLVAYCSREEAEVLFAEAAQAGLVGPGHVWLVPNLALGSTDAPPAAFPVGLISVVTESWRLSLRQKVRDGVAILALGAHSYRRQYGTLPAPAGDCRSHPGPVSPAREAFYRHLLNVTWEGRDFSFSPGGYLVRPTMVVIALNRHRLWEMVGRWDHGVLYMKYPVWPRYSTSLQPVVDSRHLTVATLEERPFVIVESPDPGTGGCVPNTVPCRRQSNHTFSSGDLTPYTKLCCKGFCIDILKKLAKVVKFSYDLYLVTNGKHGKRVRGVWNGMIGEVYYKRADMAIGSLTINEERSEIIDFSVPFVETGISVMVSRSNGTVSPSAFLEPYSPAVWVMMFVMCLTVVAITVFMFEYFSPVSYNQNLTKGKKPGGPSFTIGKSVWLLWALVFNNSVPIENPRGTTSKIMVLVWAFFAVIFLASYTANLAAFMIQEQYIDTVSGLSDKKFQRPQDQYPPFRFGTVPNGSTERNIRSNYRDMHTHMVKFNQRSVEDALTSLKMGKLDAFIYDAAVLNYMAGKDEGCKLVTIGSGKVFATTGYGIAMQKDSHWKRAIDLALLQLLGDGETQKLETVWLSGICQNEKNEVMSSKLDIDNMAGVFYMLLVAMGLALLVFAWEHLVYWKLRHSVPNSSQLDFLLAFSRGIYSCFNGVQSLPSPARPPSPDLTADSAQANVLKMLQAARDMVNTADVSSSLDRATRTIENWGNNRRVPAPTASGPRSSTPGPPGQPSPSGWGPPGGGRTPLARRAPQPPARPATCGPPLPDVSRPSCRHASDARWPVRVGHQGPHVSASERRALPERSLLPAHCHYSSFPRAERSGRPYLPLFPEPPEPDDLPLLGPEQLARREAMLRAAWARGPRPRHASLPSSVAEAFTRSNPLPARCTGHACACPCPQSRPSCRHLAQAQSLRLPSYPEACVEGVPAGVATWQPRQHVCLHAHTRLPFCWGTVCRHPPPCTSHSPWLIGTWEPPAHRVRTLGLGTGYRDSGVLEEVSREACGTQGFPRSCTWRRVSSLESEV
The experiment in a line: Electrophysiological assay at NMDA receptor subunits NR1A/2C expressed in Xenopus oocytes. To be noted: rat clones in Xenopus oocytes, currents activated by glutamate (100 μM) and glycine (1-100 μM). The format is cell-based.
Description: as §1, §2, §3, §4, §5, §6, §7

The test system of experiment [4] is 6-Hydroxydopamine-lesioned rats. The experiment in a line: 6-OHDA Rat Assay: potentiation of contraversive rotation induced by L-DOPA methyl ester. The format is in vivo, Sprague-Dawley rats. The conditions noted are these: po; L-DOPA methyl ester 10 mg/kg SC; total contraversive rotations over 6 hour vs L-DOPA only. The protocol:
Adult male Sprague-Dawley rats were anesthetized with chloral hydrate and unilateral lesions of the nigrostriatal dopamine system were accomplished by infusion of 8 μg of 6-hydroxydopamine HBr (6-OHDA) into the right medial forebrain bundle. […] A minimum of 3 weeks after surgery, the rotational behavior induced by apomorphine HCL 50 μg/kg subcutaneously (SC) was assessed. […] Rotational behavior was measured using an automatic rotometer system (Rotorat Rotational Activity System, MED Associates, Georgia, Vt.). Anti-parkinsonian activity was assessed as the ability of the compound to potentiate the contraversive rotation induced by L-DOPA methyl ester, 10 mg/kg SC, over a 6 hour period. Experiments were conducted using a crossover paradigm where each rat received either a vehicle plus L-DOPA, or the test compound plus L-DOPA, in randomized order. Rats were tested at 7 day intervals. In experiments in which the compound was tested orally, rats were food deprived for 16 hours. Statistical analysis between treatment groups were performed using a paired t-test.

For experiment [5] the following is noted: at plasma levels leading to NMDA receptor antagonism; cited from earlier work.

T2 sequence (Q00960 27-1482, other chains not shown): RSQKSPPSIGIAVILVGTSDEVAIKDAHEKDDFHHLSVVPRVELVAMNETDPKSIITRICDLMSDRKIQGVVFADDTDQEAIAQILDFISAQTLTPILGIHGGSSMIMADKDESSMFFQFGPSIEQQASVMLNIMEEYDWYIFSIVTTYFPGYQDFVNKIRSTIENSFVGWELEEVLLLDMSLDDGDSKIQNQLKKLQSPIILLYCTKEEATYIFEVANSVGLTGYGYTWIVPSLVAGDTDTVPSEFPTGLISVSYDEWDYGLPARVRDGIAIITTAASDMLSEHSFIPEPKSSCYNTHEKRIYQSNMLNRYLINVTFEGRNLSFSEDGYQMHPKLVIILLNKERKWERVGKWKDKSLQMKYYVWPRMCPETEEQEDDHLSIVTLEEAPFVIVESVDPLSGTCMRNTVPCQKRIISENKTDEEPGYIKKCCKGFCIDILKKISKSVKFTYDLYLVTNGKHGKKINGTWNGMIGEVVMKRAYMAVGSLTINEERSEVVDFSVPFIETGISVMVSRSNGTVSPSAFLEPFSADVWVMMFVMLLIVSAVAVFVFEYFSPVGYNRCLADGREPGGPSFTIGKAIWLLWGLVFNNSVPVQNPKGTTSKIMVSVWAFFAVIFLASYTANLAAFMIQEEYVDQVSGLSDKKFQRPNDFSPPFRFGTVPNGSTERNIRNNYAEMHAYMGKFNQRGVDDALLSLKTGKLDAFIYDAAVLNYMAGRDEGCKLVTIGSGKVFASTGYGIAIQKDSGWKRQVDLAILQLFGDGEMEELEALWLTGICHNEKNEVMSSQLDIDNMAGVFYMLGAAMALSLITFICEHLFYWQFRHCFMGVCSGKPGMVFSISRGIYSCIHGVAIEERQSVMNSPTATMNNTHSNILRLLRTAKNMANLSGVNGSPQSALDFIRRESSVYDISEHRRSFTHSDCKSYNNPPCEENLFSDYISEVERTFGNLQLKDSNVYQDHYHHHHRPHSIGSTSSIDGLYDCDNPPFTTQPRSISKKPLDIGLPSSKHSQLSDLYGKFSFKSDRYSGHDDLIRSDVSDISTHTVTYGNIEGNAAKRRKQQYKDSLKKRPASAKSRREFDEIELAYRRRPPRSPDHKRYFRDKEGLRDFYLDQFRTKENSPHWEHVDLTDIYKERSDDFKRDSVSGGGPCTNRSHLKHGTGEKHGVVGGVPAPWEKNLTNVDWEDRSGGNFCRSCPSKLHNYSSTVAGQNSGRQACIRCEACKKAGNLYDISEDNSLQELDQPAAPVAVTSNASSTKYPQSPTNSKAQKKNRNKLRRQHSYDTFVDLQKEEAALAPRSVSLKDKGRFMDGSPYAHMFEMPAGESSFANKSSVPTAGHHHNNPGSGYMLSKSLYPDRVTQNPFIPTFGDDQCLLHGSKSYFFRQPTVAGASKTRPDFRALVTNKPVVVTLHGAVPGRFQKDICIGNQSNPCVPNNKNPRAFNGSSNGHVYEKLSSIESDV

With `O=C(O)c1cc(O)c2c(Cl)cc(Cl)cc2n1` [5,7-dichlorokynurenic acid], the “antagonism of d-amphetamine-induced stimulation” value in experiment [1] is “selectively antagonize d-amphetamine-induced stimulation when injected into rat nucleus accumbens but not in striatum”. Regarding `N[C@@H]1CCN(O)C1=O` [(+) HA-966], the “antagonism of d-amphetamine-induced stimulation” value in experiment [1] is “selectively antagonize d-amphetamine-induced stimulation when injected into rat nucleus accumbens but not in striatum”. As to `C[C@]12N[C@H](Cc3ccccc31)c1ccccc12` [MK801], in experiment [2], the “effectiveness in animal models of anxiety” value is on record as “effective in a variety of animal models of anxiety”.

As to `CNC1(c2ccccc2Cl)CCCCC1=O` (stereo not shown) [ketamine], the “ability to relax the smooth muscle of the airway” value in experiment [3] is reported as “relax the smooth muscle of the airway”. Turning to `O=c1[nH]c2ccc([S+]([O-])CCN3CCC(Cc4ccc(Cl)cc4)CC3)cc2o1` (stereo not shown) [Example 2, 6-{2-[4-(4-chloro-benzyl)-piperidin-1-yl]-ethanesulfinyl}-3H-benzooxazol-2-one], the IC50 was above 300 µM at NRIA /2A, 0.02 µM on NR1A /2B and 200 µM at NR1A /2C. Besides, in experiment [4], the “6-OHDA rat MED (minimum effective dose)” value was 3 mg/kg. In the case of `NC12CC3CC(CC(C3)C1)C2` [amantadine], the antiparkinsonian-like activity result in experiment [5] is recorded as “showed antiparkinsonian-like activity in animals”. Regarding `CC12CC3CC(C)(C1)CC(N)(C3)C2` [memantine], the antiparkinsonian-like activity result in experiment [5] is given as “showed antiparkinsonian-like activity in animals”.
